# In patent publication US8962244B2, “Compounds for modulating RNA binding proteins and uses therefor” (University of Massachusetts, priority 2009, dated 2015):
# Target: T1, MEX-5 (Caenorhabditis elegans, UniProt Q9XUB2)
# T1 construct: The fragment of mex-5 containing the TZF domain (amino acids 236-350) was amplified; made in house; host or cells: Escherichia coli JM109
# T1 sequence (Q9XUB2 236-350): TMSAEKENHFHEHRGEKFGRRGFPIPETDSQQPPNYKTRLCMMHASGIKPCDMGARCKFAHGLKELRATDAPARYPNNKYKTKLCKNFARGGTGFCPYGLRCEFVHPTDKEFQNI
# Assay: Fluorescence polarization screening of MEX-5 binding to fluorescein-labeled TCR2 RNA
# Conditions: 192 μM test compound; score = polarization relative to no-drug and no-protein controls; 0.25 = 75% inhibition; lowest score = greatest inhibition; read-out: MEX-5 score
# Description: The expression and purification of recombinant MEX-5 protein has previously been described in Pagano, J. M., Farley, B. M., McCoig, L. M. and Ryder, S. P. (2007) “Molecular basis of RNA recognition by the embryonic polarity determinant MEX-5;” J Biol Chem; 282, 8883-8894. The fragment of mex-5 containing the TZF domain (amino acids 236-350) was amplified from a commercially available ORFeome clone (Open Biosystems) and sub-cloned into the vector pMal-c (NEB), which encodes maltose binding protein as an N-terminal fusion. This construct is termed pMal-MEX-5 (236-350).
# MEX-5 is expressed in Escherchia. coli JM109 liquid cultures grown at 37° C. Cultures were induced during mid log phase by the addition of 0.1 mM isopropyl 1-thio-β-D-galactopyranoside (IPTG) and allowed to grow for three hours. An amount of 100 μM zinc acetate (final concentration) was added at the time of induction. The pelleted cells were resuspended in lysis buffer (50 mM Tris pH 8.8, 200 mM NaCl, 2 mM DTT, EDTA free protease inhibitor tablet (Roche), 100 μM Zn(OAc)2) and lysed by sonication. The soluble protein was purified in three steps using standard chromatography methods: (1) amylose affinity (NEB), (2) Hi-TRAP-Q (GE Healthcare), and (3) Hi-TRAP-S (GE Healthcare). The Q buffer was composed of 50 mM Tris, pH 8.8, 20 mM-1500 mM NaCl, 2 mM DTT, and 100 μM Zn(OAc)2. The S buffer was composed of 50 mM MOPS, pH 6.0, 20 mM-1500 mM NaCl, 2 mM DTT, 100 μM Zn(OAc)2. The pure fractions, determined by coomassie-stained SDS-PAGE, were dialyzed into storage buffer (20 mM Tris, pH 8.0, 25 mM NaCl, 100 μM Zn(OAc)2, 2 mM DTT). The protein concentration was determined by measuring absorbance at 280 nm and the calculated extinction coefficient. The protein was stored at 50 μM concentration at 4° C.
# All RNA oligonucleotides were chemically synthesized by Dharmacon or Integrated DNA Technologies. Upon arrival, each RNA was deprotected and stored according to the manufacturer's instructions. Prior to use, the RNA was resuspended in 10 mM Tris-HCl, pH 8.0, 0.1 mM EDTA, and the concentration determined by UV spectrophotometry using the calculated extinction coefficient at 260 nm based on the specific sequence. The sequence of the MEX-5 binding RNA (TCR2) is […] (SEQ ID NO:1). The POS-1 binding RNA (BMF018) is […] (SEQ ID NO:2). The MEX-3 binding RNA (SEQ 14) is […] (SEQ ID NO:3).
# The RNA used for the small molecule screen was labeled at the 3′-end with fluorescein by Dharmacon during synthesis. In a few cases, follow up experiments were performed with post-synthetically labeled RNA. In this case, fluorescein 5-thiosemicarbazide (FTSC, Invitrogen) was used to 3′-end label each RNA after treatment with sodium periodate (see Reines, S. A. and Cantor, C. R. (1974) “New fluorescent hydrazide reagents for the oxidized 3′-terminus of RNA” Nucleic Acids Res. 1, 767-786). A representative 50 μl reaction consisted of 0.5 nanomoles RNA, 100 mM NaOAc, pH 5.1, and 5 nanomoles NaIO4. After the reaction was complete (90 minutes at room temperature), the sample was ethanol precipitated by adding 1 μl RNase free glycogen (Invitrogen 20 μg/μl), 1/20th volume of 5 M NaCl, and 2 volumes of 100% ice-cold ethanol. The resulting pellet was resuspended in 50 μl of 100 mM NaOAc, pH 5.1 containing 1 mM FTSC and was allowed to react overnight at 4° C. in the dark. The unreacted label was removed by ethanol precipitation with resuspension of the pellet in a small volume of TE, and purification over a Roche G-25 size exclusion spin column. The labeling efficiency is determined by calculating the ratio of fluorescein absorbance at 490 nm to RNA-fluorescein absorbance at 260 nm. Typical efficiencies are 60-80%.
# The ability of MEX-5 to associate with RNA was monitored by fluorescence polarization using a victor V3 or victor V2V plate reader (Perkin Elmer) in 384-well FluoTrak microplates (Grenier). […]
row,Compound,remaining activity at 192 µM
1,CCCn1c(NC(=S)Nc2ccccc2)nc2ccccc21 [CH],23.1%
2,Sc1nnc(-c2cccs2)n1-c1ccccc1 [R],3.52%
3,CCOC(=O)N1CCN(C(=S)Nc2ccc3nc(-c4ccccn4)c(-c4ccccn4)nc3c2)CC1 [BZ],21.4%
4,Oc1ccccc1-c1n[nH]c(=S)n1-c1ccccc1 [BM],18.8%
5,O=c1[nH]c(=S)[nH]c2sc3c(c12)CCCCCCCCCC3 [CJ],23.4%
6,COc1ccc(OCc2nnc(S)n2-c2ccccc2)cc1 [CE],22.7%
7,CCCCn1c(NC(=S)Nc2ccccc2)nc2ccccc21 [AW],14.1%
8,Sc1nnc(-c2cccs2)n1CCc1ccccc1 [BQ],19.5%
9,Cc1ccc(C(=O)Nc2nc(-c3ccccc3)c(-c3ccccc3)o2)cc1 [CC],22.5%
10,O=[N+]([O-])c1cc(CN2CCOCC2)c2cccnc2c1O [U],6.21%
11,O=C(NC(=S)N(Cc1ccccc1)Cc1ccccc1)c1ccc([N+](=O)[O-])cc1 [CK],23.4%
12,O=[N+]([O-])c1cc(CN2CCC(c3ccccc3)C2)c(O)c2ncccc12 (stereo not shown) [BX],21.2%
13,Sc1nnc(CCc2ccccc2)n1-c1ccccc1 [BD],15.5%
14,Cc1cc([N+](=O)[O-])ccc1NC(=O)c1cnccn1 [BG],17.2%
15,COc1ccc(C(=O)Nc2nc(N3C(=O)c4ccccc4C3=O)n(-c3ccccc3)n2)cc1 [BE],16.1%
16,Sc1nnc(COc2cccc(Br)c2)n1-c1ccccc1 [BB],15.4%
17,CCOC(=O)C(=O)Nc1nnc(Cc2ccc(Cl)cc2)s1 [Q],3.51%
18,Cc1ccc(S(=O)(=O)Nc2nc(N3C(=O)c4ccccc4C3=O)n(-c3ccccc3)n2)cc1 [AT],13.2%
19,COc1cc(-c2nnc(S)n2-c2ccc(C)cc2C)cc(OC)c1OC [CF],22.9%
20,O=C(CSc1nnc2c(n1)[nH]c1ccccc12)Nc1ccc(S(=O)(=O)Nc2nccs2)cc1 [CI],23.2%
21,Cc1cc(C)nc(NS(=O)(=O)c2ccc(Nc3nc(-c4ccc(O)c(O)c4)cs3)cc2)n1 [AC],7.58%
22,Fc1ccc(-n2c(S)nnc2-c2cccs2)cc1 [CL],23.5%
23,CCc1cc(-c2n[nH]c(C)c2-c2nc3ccccc3s2)c(O)cc1OC [CU],25.3%
24,CCOC(=O)c1c[nH]c2nc3ccccc3n2c1=O [AM],10.5%

row,Compound,remaining activity at 192 µM
1,Cc1ccccc1Cn1c(S)nc2ccccc21 [AX],14.1%
2,C=CCn1c(S)nnc1CCc1ccc(OC(C)C)cc1 [CS],25.2%
3,O=C(NC(=S)N(Cc1ccccc1)Cc1ccccc1)c1ccc(Br)o1 [CP],24.1%
4,Cn1c(-c2cc(Br)ccc2O)n[nH]c1=S [AN],10.5%
5,O=[N+]([O-])c1cccc(S(=O)(=O)Nc2cc(Br)c(O)c3ccccc23)c1 [AJ],9.23%
6,COc1ccc(C(=O)NC(=S)Nc2cc(C)cc(C)c2)cc1Cl [BN],18.9%
7,S=C(Nc1ccccc1)Nc1nc2ccccc2n1Cc1ccccc1 [AR],12.9%
8,O=C(Nc1nc2n(n1)C(c1ccccc1)C=C(c1ccccc1)N2)c1ccc([N+](=O)[O-])cc1 (stereo not shown) [BH],17.6%
9,O=S(=O)(Nc1cc(Cl)c(O)c2ccccc12)c1cccs1 [V],6.26%
10,CCCc1nnc(NC(=O)c2cccc(C(=O)Nc3nnc(CCC)s3)n2)s1 [AK],10.2%
11,O=[N+]([O-])c1cccc(S(=O)(=O)Nc2cc(Cl)c(O)c3ccccc23)c1 [X],6.69%
12,CCCCC(=O)Nc1cccc(NC(=S)NC(=O)C(C)C)c1 [BT],20.2%
13,CCOC(=O)Cc1nnc(NC(=O)c2ncn[nH]2)s1 [N],2.09%
14,Cc1ccc(-c2cc(C(=O)Nc3ccccc3Cl)c3ccccc3n2)o1 [BW],21.2%
15,CCC(=O)NC(c1ccc(OC)c(OC)c1)c1cc([N+](=O)[O-])c2cccnc2c1O (stereo not shown) [AG],8.62%
16,CCOC(=O)C(=O)Nc1nnc(C(C)(C)C)s1 [CR],24.7%
17,CCc1ccc(-n2c(-c3cc(Cl)ccc3OC)n[nH]c2=S)cc1 [CG],23%
18,Sc1nnc(SCc2ccccc2Cl)s1 [CT],25.2%
19,CC(=O)Nc1nc(N2C(=O)c3ccccc3C2=O)n(-c2ccccc2)n1 [CV],25.5%
20,CC(C)Oc1ccc(Cc2nnc(S)n2-c2ccccc2)cc1Cl [CM],23.6%
21,Cc1ccc(-n2c(-c3ccco3)n[nH]c2=S)cc1 [AS],13.1%
22,Cc1ccccc1OCc1nnc(S)n1C [CN],23.9%
23,O=C(Nc1nc2ccccc2s1)c1cccc(C(=O)Nc2nc3ccccc3s2)n1 [AP],12.2%
24,COc1ccc(OCCn2c(NC(C)=O)nc3ccccc32)cc1 [BC],15.5%

# Same assay, conditions: read-out: MEX-5 score
row,Compound,remaining activity at 192 µM
1,CC(=O)Oc1ccc2c(C)cc(=O)oc2c1OC(C)=O [CQ],24.5%

# Target: T2, POS-1 (Caenorhabditis elegans, UniProt G5EF15)
# T2 construct: 6-his tag (N); made in house; host or cells: E. coli BL21 (DE3) Gold
# T2 sequence (G5EF15 80-180): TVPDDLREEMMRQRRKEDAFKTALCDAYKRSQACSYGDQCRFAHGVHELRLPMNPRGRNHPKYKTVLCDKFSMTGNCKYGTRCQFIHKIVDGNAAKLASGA
# Assay: Fluorescence polarization screening of POS-1 binding to fluorescein-labeled BMF018 RNA
# Conditions: 192 μM test compound; score = polarization relative to no-drug and no-protein controls; 0.25 = 75% inhibition; lowest score = greatest inhibition; read-out: POS-1 score
row,Compound,remaining activity at 192 µM
1,CCc1nnc(NS(=O)(=O)c2ccc(NCc3cc(Cl)cc(Cl)c3O)cc2)s1 [DH],11.9%
2,CC1=NN(c2ccc(Cl)c(C(=O)O)c2)C(=O)/C1=C/c1cccc(OC(=O)c2cccs2)c1 [DB],6.9%
3,O=C1NN(c2ccc(Cl)c(Cl)c2)C(=O)/C1=C/c1cccc(OC(=O)c2cccs2)c1 [EG],22.9%
4,Cc1ccc2c(Cl)c(C(=O)Nc3nnn[nH]3)sc2c1 [EL],23.8%
5,CCOC(=O)c1c(NC(=O)C2CC=CCC2C(=O)O)sc(C)c1-c1ccc(Cl)cc1 (stereo not shown) [EA],20.3%
6,Cc1ccc(S(=O)(=O)NCc2nc3ccccc3[nH]2)cc1 [DY],20%
7,Cc1cc(OCC(=O)Nc2ccc(S(=O)(=O)Nc3nccs3)cc2)ccc1Br [DT],17.7%
8,O=C1NN(c2ccc(F)c(Cl)c2)C(=O)/C1=C\c1cccc(OC(=O)c2cccs2)c1 [CX],4.3%
9,Cc1cc(NS(=O)(=O)c2ccc(Nc3nc(-c4ccc(F)c(C)c4)cs3)cc2)no1 [EN],24.7%
10,C#CCSc1nc2sc3c(c2c(=O)n1C)CCC3 [EB],21%
11,CCOC(=O)c1ccc(N2NC(=O)/C(=C/c3cccc(OC(=O)c4cccs4)c3)C2=O)cc1 [DL],14.3%
12,COc1cc(-c2n[nH]c(=S)[nH]2)cc(OC)c1OC [DU],18%
